Laboratory results: patent publication US10364222B2, “Cyclic amine derivative and medical use thereof” (Toray Industries, Inc., priority 2016, dated 2019)

Columns and labels:
[1] = system: IL-17 production in mouse splenocytes; experiment: Suppressive effect on IL-17 production by IL-23 stimulation in mouse splenocytes; assay type: cell-based; conditions: Splenocyte, 72 h, at 5 μmol/L of the test compound, 10 ng/mL human IL-23, 3 days, read-out: IL-17 production inhibition rate (%)
Outline: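 Splenocytes from male C57BL/6J mice (3×10^5/well, with 100 U/mL human IL-2) stimulated with 10 ng/mL human IL-23 plus compound (0.1% DMSO) for 3 days at 37 °C. Supernatant IL-17 measured by ELISA; inhibition calculated against unstimulated and IL-23-only wells.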

[2] = biological target: T1, ligand-binding domain of RORγ (RORγ-LBD) (Homo sapiens, UniProt P51449); experiment: Inhibitory effect on RORγ-coactivator binding (LanthaScreen TR-FRET RORγ Coactivator Assay); conditions: at 33 μmol/L of the test compound; read-out: RORγ-coactivator binding inhibition rate (%)
T1 construct: purchased Invitrogen
T1 sequence (P51449 269-508 limits assumed): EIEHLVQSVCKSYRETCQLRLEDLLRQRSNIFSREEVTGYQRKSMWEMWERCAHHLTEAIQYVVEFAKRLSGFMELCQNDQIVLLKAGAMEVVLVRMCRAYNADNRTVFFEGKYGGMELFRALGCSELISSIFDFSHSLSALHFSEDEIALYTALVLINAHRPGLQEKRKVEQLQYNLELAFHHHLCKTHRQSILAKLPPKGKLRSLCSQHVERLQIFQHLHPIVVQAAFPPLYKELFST
Outline: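 TR-FRET: 4 nmol/L GST-RORγ-LBD with compound (1% DMSO) in Coregulator Buffer D plus 5 mmol/L DTT, then 150 nmol/L fluorescein-TRAP220/DRIP-2 and 32 nmol/L Tb-anti-GST antibody; 16–24 hours at room temperature. 520/495 nm ratio (320 nm excitation), background-corrected against control, gives % inhibition of coactivator binding.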

Compound	inhibition at 5 µM [1] [%]	inhibition at 33 µM [2] [%]
O=C(Nc1ccc(-c2ccccc2OC(F)(F)F)c(Cl)c1)C1CCCCN1C(=O)COC(F)(F)F (stereo not drawn) [Example 8, N-(2-chloro-2′-(trifluoromethoxy)-[1,1′-biphenyl]-4-yl)-1-(2-(trifluoromethoxy)acetyl)piperidine-2-carboxamide]	99.2	95.2
Cn1cc(C(=O)N2CCCCC2C(=O)Nc2ccc(-c3ccccc3OC(F)(F)F)c(Cl)c2)cn1 (stereo not drawn) [Example 46, N-(2-chloro-2′-(trifluoromethoxy)-[1,1′-biphenyl]-4-yl)-1-(1-methyl-1H-pyrazole-4-carbonyl)piperidine-2-carboxamide]	99.2	99.3
O=C(Nc1ccc(-c2ccccc2OC(F)(F)F)c(Cl)c1)C1CCCCN1C(=O)CO (stereo not drawn) [Example 5, N-(2-chloro-2′-(trifluoromethoxy)-[1,1′-biphenyl]-4-yl)-1-(2-hydroxyacetyl)piperidine-2-carboxamide]	99.5	96.9
O=C(Nc1ccc(-c2ccccc2OC(F)(F)F)c(Cl)c1)[C@H]1CCCCN1C(=O)Cn1ccnn1 [Example 64, (R)-1-(2-(1H-1,2,3-triazol-1-yl)acetyl)-N-(2-chloro-2′-(trifluoromethoxy)-[1,1′-biphenyl]-4-yl)piperidine-2-carboxamide]	99.4	97.3
CC(C)Oc1ccccc1-c1ccc(NC(=O)C2CCCCN2C(=O)CN(C)S(C)(=O)=O)cc1Cl (stereo not drawn) [Example 49, N-(2-chloro-2′-isopropoxy-[1,1′-biphenyl]-4-yl)-1-(2-(N-methylmethylsulfonamide)acetyl)piperidine-2-carboxamide]	98.3	99.3
Cc1cc(CC(=O)N2CCCCC2C(=O)Nc2ccc(-c3ccccc3OC(F)(F)F)c(Cl)c2)on1 (stereo not drawn) [Example 56, 1-(2-(3-methylisoxazol-5-yl)acetyl)-N-(2-chloro-2′-(trifluoromethoxy)-[1,1′-biphenyl]-4-yl)piperidine-2-carboxamide]	107	104
CCS(=O)(=O)N1CCCCC1C(=O)Nc1ccc(-c2ccccc2OC(F)(F)F)c(Cl)c1 (stereo not drawn) [Example 14, N-(2-chloro-2′-(trifluoromethoxy)-[1,1′-biphenyl]-4-yl)-1-(ethylsulfonyl)piperidine-2-carboxamide]	90.5	94
O=C(Nc1ccc(-c2ccccc2OC(F)(F)F)c(Cl)c1)C1CCCCN1C(=O)C(F)(F)F (stereo not drawn) [Example 2, N-(2-chloro-2′-(trifluoromethoxy)-[1,1′-biphenyl]-4-yl)-1-(2,2,2-trifluoroacetyl)piperidine-2-carboxamide]	96.2	91.9
CN(CC(=O)N1CCCCC1C(=O)Nc1ccc(-c2ccccc2OC(F)(F)F)c(F)c1)S(C)(=O)=O (stereo not drawn) [Example 51, N-(2-fluoro-2′-(trifluoromethoxy)-[1,1′-biphenyl]-4-yl)-1-(2-(N-methylmethylsulfonamide)acetyl)piperidine-2-carboxamide]	98.6	100
O=CN1CCCCC1C(=O)Nc1ccc(-c2ccccc2OC(F)(F)F)c(Cl)c1 (stereo not drawn) [Example 16, N-(2-chloro-2′-(trifluoromethoxy)-[1,1′-biphenyl]-4-yl)-1-formylpiperidine-2-carboxamide]	98	99.3
Cc1cc(C)n(CC(=O)N2CCCCC2C(=O)Nc2ccc(-c3ccccc3OC(F)(F)F)c(Cl)c2)n1 (stereo not drawn) [Example 55, 1-(2-(3,5-dimethyl-1H-pyrazol-1-yl)acetyl)-N-(2-chloro-2′-(trifluoromethoxy)-[1,1′-biphenyl]-4-yl)piperidine-2-carboxamide]	99.7	104
CN(C)C(=O)N1CCCCC1C(=O)Nc1ccc(-c2ccccc2OC(F)(F)F)c(Cl)c1 (stereo not drawn) [Example 18, N^2-(2-chloro-2′-(trifluoromethoxy)-[1,1′-biphenyl]-4-yl)-N^1,N^1-dimethylpiperidine-1,2-dicarboxamide]	90.8	95.9
